According to patent US20240384350A1, “METHODS OF TREATING CANCER WITH KINASE INHIBITORS” (BOARD OF REGENTS, THE UNIVERSITY OF TEXAS SYSTEM, priority 2021, published 2024):

What was measured:
Assay in all cases: Ba/F3 drug screening, Cell Titer Glo, IC50 Mut/WT
Assay type in all cases: cell-based
[1] = biological target: T1, EGFR Ex19del L718V (Homo sapiens, UniProt P00533, DEL746-750/L718V); settings: Ba/F3 cells, EGFR Ex19del L718V (PACC), Mut/WT
T1 construct: expressed in transfected cells; host or cells: Ba/F3
Protocol: (§1) Data represent the ratio of the IC50 value for a given TKI for cells with a PACC EGFR mutation to the IC50 value for cells with wildtype EGFR.
(§2) Ba/F3 cell generation, drug screening, and IC50 approximations. Ba/F3 cells were obtained as a gift from Dr. Gordon Mills (MD Anderson Cancer Center), and maintained in RPMI (Sigma) containing 10% FBS, 1% penicillin/streptomycin, and 10 ng/ml recombinant mIL-3 (R&D Biosystems). To establish stable Ba/F3 cell lines, Ba/F3 cells were transduced with retroviruses containing mutant EGFR plasmids for 12-24 hours.
(§3) After 48-72 hours of transduction, 2 μg/ml puromycin (Invitrogen) was added to Ba/F3 cell lines in complete RPMI. To select for EGFR positive cell lines, cells were stained with PE-EGFR (Biolegend) and sorted by FACS. After sorting, EGFR positive cells were maintained in RPMI containing 10% FBS, 1% penicillin/streptomycin, and 1 ng/ml EGF to support cell viability. Drug screening was performed as previously described^41,42. Shortly, cells were plated in 384-well plates (Greiner Bio-One) at 2000-3000 cells per well in technical triplicate. Seven different concentrations of TKIs or DMSO vehicle were added to reach a final volume of 40 μL per well. After 72 hours, 11 μL of Cell Titer Glo (Promega) was added to each well. Plates were incubated for a minimum of 10 minutes, and bioluminescence was determined using a FLUOstar OPTIMA plate reader (BMG LABTECH). Raw bioluminescence values were normalized to DMSO control treated cells, and values were plotted in GraphPad Prism. […] Drug screens were performed in technical triplicate on each plate and either duplicate or triplicate biological replicates.

[2] = biological target: T2, EGFR E709K L858R (Homo sapiens, UniProt P00533, E709K/L858R); settings: Classical-Like, 72 hours
T2 construct: expressed in transfected cells; host or cells: Ba/F3 cells, retroviral pBabe-Puro vector

[3] = biological target: T3, EGFR Ex19del/L792H (Homo sapiens, UniProt P00533, DEL746-750/L792H); settings: Ba/F3 cells, EGFR Ex19del/L792H (PACC), Mut/WT
T3 construct: expressed in transfected cells; host or cells: Ba/F3

[4] = biological target: T4, EGFR V769L (Homo sapiens, UniProt P00533, V769L); settings: Ba/F3 cells, EGFR V769L (PACC), Mut/WT
T4 construct: expressed in transfected cells; host or cells: Ba/F3

[5] = biological target: T5, EGFR L861Q (Homo sapiens, UniProt P00533, L861Q); settings: Classical-Like, 72 hours
T5 construct: expressed in transfected cells; host or cells: Ba/F3 cells, retroviral pBabe-Puro vector

[6] = biological target: T6, EGFR L858R G724S (Homo sapiens, UniProt P00533, G724S/L858R); settings: Ba/F3 cells, EGFR L858R G724S (PACC), Mut/WT
T6 construct: expressed in transfected cells; host or cells: Ba/F3 (retroviral transduction, pBabe-Puro based vectors)

[7] = biological target: T7, EGFR S811F (Homo sapiens, UniProt P00533, S811F); settings: Classical-Like, 72 hours
T7 construct: expressed in transfected cells; host or cells: Ba/F3 cells, retroviral pBabe-Puro vector (vector made by GeneScript from EGFR WT)

[8] = biological target: T8, EGFR Ex19del/T790M/L792H (Homo sapiens, UniProt P00533, DEL746-750/L792H/T790M); settings: T790M-like-3R, 72 hours
T8 construct: expressed in transfected cells; host or cells: Ba/F3
Protocol: (§4) Data represent the ratio of the IC50 value for a given TKI for cells with a T790M-like-3R EGFR mutation to the IC50 value for cells with wildtype EGFR.
as §2
(§5) After 48-72 hours of transduction, 2 μg/ml puromycin (Invitrogen) was added to Ba/F3 cell lines in complete RPMI. To select for EGFR positive cell lines, cells were stained with PE-EGFR (Biolegend) and sorted by FACS. After sorting, EGFR positive cells were maintained in RPMI containing 10% FBS, 1% penicillin/streptomycin, and 1 ng/ml EGF to support cell viability. […] Shortly, cells were plated in 384-well plates (Greiner Bio-One) at 2000-3000 cells per well in technical triplicate. Seven different concentrations of TKIs or DMSO vehicle were added to reach a final volume of 40 μL per well. After 72 hours, 11 μL of Cell Titer Glo (Promega) was added to each well. Plates were incubated for a minimum of 10 minutes, and bioluminescence was determined using a FLUOstar OPTIMA plate reader (BMG LABTECH). Raw bioluminescence values were normalized to DMSO control treated cells, and values were plotted in GraphPad Prism. […] Drug screens were performed in technical triplicate on each plate and either duplicate or triplicate biological replicates. […] Statistical differences between groups were determined by ANOVA as described in the figure legends.

[9] = biological target: T9, EGFR L858R/T790M/C797S (Homo sapiens, UniProt P00533, C797S/L858R/T790M); settings: T790M-like-3R, 72 hours
T9 construct: expressed in transfected cells; host or cells: Ba/F3
Protocol: as §4, §2, §5

[10] = biological target: T10, EGFR S784F (Homo sapiens, UniProt P00533, S784F); settings: Classical-Like, 72 hours
T10 construct: expressed in transfected cells; host or cells: Ba/F3 cells, retroviral pBabe-Puro vector (vector made by GeneScript from EGFR WT)
Protocol: (§6) Data represent the ratio of the IC50 value for a given TKI for cells with a classical-like EGFR mutation to the IC50 value for cells with wildtype EGFR.
as §2
(§7) After 48-72 hours of transduction, 2 μg/ml puromycin (Invitrogen) was added to Ba/F3 cell lines in complete RPMI. To select for EGFR positive cell lines, cells were stained with PE-EGFR (Biolegend) and sorted by FACS. After sorting, EGFR positive cells were maintained in RPMI containing 10% FBS, 1% penicillin/streptomycin, and 1 ng/ml EGF to support cell viability. […] Shortly, cells were plated in 384-well plates (Greiner Bio-One) at 2000-3000 cells per well in technical triplicate. Seven different concentrations of TKIs or DMSO vehicle were added to reach a final volume of 40 μL per well. After 72 hours, 11 μL of Cell Titer Glo (Promega) was added to each well. Plates were incubated for a minimum of 10 minutes, and bioluminescence was determined using a FLUOstar OPTIMA plate reader (BMG LABTECH). Raw bioluminescence values were normalized to DMSO control treated cells, and values were plotted in GraphPad Prism. […] Drug screens were performed in technical triplicate on each plate and either duplicate or triplicate biological replicates.

[11] = biological target: T11, EGFR S768I (Homo sapiens, UniProt P00533, S768I); settings: Ba/F3 cells, EGFR S768I (PACC), Mut/WT
T11 construct: expressed in transfected cells; host or cells: Ba/F3
Protocol: as §1, §2
(§8) After 48-72 hours of transduction, 2 μg/ml puromycin (Invitrogen) was added to Ba/F3 cell lines in complete RPMI. To select for EGFR positive cell lines, cells were stained with PE-EGFR (Biolegend) and sorted by FACS. After sorting, EGFR positive cells were maintained in RPMI containing 10% FBS, 1% penicillin/streptomycin, and 1 ng/ml EGF to support cell viability. Drug screening was performed as previously described^41,42. Shortly, cells were plated in 384-well plates (Greiner Bio-One) at 2000-3000 cells per well in technical triplicate. Seven different concentrations of TKIs or DMSO vehicle were added to reach a final volume of 40 μL per well. After 72 hours, 11 μL of Cell Titer Glo (Promega) was added to each well. Plates were incubated for a minimum of 10 minutes, and bioluminescence was determined using a FLUOstar OPTIMA plate reader (BMG LABTECH). Raw bioluminescence values were normalized to DMSO control treated cells, and values were plotted in GraphPad Prism. […] Drug screens were performed in technical triplicate on each plate and either duplicate or triplicate biological replicates. […] Statistical differences between groups were determined by ANOVA as described in the figure legends.

[12] = biological target: T12, EGFR G719S (Homo sapiens, UniProt P00533, G719S); settings: Ba/F3 cells, EGFR G719S (PACC), Mut/WT
T12 construct: expressed in transfected cells; host or cells: Ba/F3

[13] = biological target: T13, EGFR S768dupSVD (Homo sapiens, UniProt P00533, DUP768-770); settings: Ex20, 72 hours
T13 construct: expressed in transfected cells; host or cells: Ba/F3 cells, retroviral pBabe-Puro vector

[14] = biological target: T14, EGFR Ex19del T790M C797S (Homo sapiens, UniProt P00533, C797S/DEL746-750/T790M); settings: T790M-like-3R, 72 hours
T14 construct: expressed in transfected cells; host or cells: Ba/F3

[15] = biological target: T15, EGFR S768I V774M (Homo sapiens, UniProt P00533, S768I/V774M); settings: Ba/F3 cells, EGFR S768I V774M (PACC), Mut/WT
T15 construct: host or cells: Ba/F3

[16] = biological target: T16, EGFR N771dupN (Homo sapiens, UniProt P00533, DUP771-771); settings: Ex20, 72 hours
T16 construct: expressed in transfected cells; host or cells: Ba/F3 cells, retroviral pBabe-Puro vector
Protocol: Data represent the ratio of the IC50 value for a given TKI for cells with an ex20ins EGFR mutation to the IC50 value for cells with wildtype EGFR.
as §2, §8

[17] = biological target: T17, EGFR E709K G719S (Homo sapiens, UniProt P00533, E709K/G719S); settings: Ba/F3 cells, EGFR E709K G719S (PACC), Mut/WT
T17 construct: expressed in transfected cells; host or cells: Ba/F3

[18] = biological target: T18, EGFR L718Q T790M (Homo sapiens, UniProt P00533, L718Q/T790M); settings: T790M-like-3R, 72 hours
T18 construct: expressed in transfected cells; host or cells: Ba/F3
Protocol: as §4, §2, §5

[19] = biological target: T19, EGFR S720P (Homo sapiens, UniProt P00533, S720P); settings: Classical-Like, 72 hours
T19 construct: expressed in transfected cells; host or cells: Ba/F3 cells, retroviral pBabe-Puro vector (vector made by GeneScript from EGFR WT)
Protocol: as §6, §2, §7

[20] = biological target: T20, EGFR K754E (Homo sapiens, UniProt P00533, K754E); settings: Classical-Like, 72 hours
T20 construct: expressed in transfected cells; host or cells: Ba/F3 cells, retroviral pBabe-Puro vector

[21] = biological target: T21, EGFR Ex19del/C797S (Homo sapiens, UniProt P00533, C797S/DEL746-750); settings: Ba/F3 cells, EGFR Ex19del/C797S (PACC), Mut/WT
T21 construct: expressed in transfected cells; host or cells: Ba/F3

[22] = biological target: T22, EGFR L858R T790M V843I (Homo sapiens, UniProt P00533, L858R/T790M/V843I); settings: T790M-like-3S, 72 hours
T22 construct: expressed in transfected cells; host or cells: Ba/F3
Protocol: Data represent the ratio of the IC50 value for a given TKI for cells with a T790M-like-3S EGFR mutation to the IC50 value for cells with wildtype EGFR.
as §2, §3

[23] = biological target: T23, EGFR A763insFQEA (Homo sapiens, UniProt P00533, INS763FQEA); settings: Classical-Like, 72 hours
T23 construct: expressed in transfected cells; host or cells: Ba/F3 cells, retroviral pBabe-Puro vector
Protocol: as §6, §2, §7

[24] = biological target: T24, EGFR R776C (Homo sapiens, UniProt P00533, R776C); settings: Ba/F3 cells, EGFR R776C (PACC), Mut/WT
T24 construct: host or cells: Ba/F3

[25] = biological target: T25, EGFR D770insNPG (Homo sapiens, UniProt P00533, INS770NPG); settings: Ex20, 72 hours
T25 construct: expressed in transfected cells; host or cells: Ba/F3 cells, retroviral pBabe-Puro vector

[26] = biological target: T26, EGFR K757R (Homo sapiens, UniProt P00533, K757R); settings: Ba/F3 cells, EGFR K757R (PACC), Mut/WT
T26 construct: expressed in transfected cells; host or cells: Ba/F3
Protocol: as §1, §2, §8

[27] = biological target: T27, EGFR T725M (Homo sapiens, UniProt P00533, T725M); settings: Classical-Like, 72 hours
T27 construct: expressed in transfected cells; host or cells: Ba/F3 cells, retroviral pBabe-Puro vector (vector made by GeneScript from EGFR WT)
Protocol: as §6, §2, §7

Compound	ratio of the IC50 value for cells with a PACC EGFR mutation to the IC50 value for cells with wildtype EGFR [1]	ratio of IC50 for cells with mutant EGFR to IC50 for cells with wildtype EGFR (Mut/WT) [2]	ratio of the IC50 value for cells with a PACC EGFR mutation to the IC50 value for cells with wildtype EGFR [3]	ratio of the IC50 value for cells with a PACC EGFR mutation to the IC50 value for cells with wildtype EGFR [4]	ratio of IC50 for cells with mutant EGFR to IC50 for cells with wildtype EGFR (Mut/WT) [5]	ratio of the IC50 value for cells with a PACC EGFR mutation to the IC50 value for cells with wildtype EGFR [6]	ratio of IC50 for cells with mutant EGFR to IC50 for cells with wildtype EGFR (Mut/WT) [7]	ratio of IC50 for cells with mutant EGFR to IC50 for cells with wildtype EGFR (Mut/WT) [8]	ratio of IC50 for cells with mutant EGFR to IC50 for cells with wildtype EGFR (Mut/WT) [9]	ratio of IC50 for cells with mutant EGFR to IC50 for cells with wildtype EGFR (Mut/WT) [10]	ratio of the IC50 value for cells with a PACC EGFR mutation to the IC50 value for cells with wildtype EGFR [11]	ratio of the IC50 value for cells with a PACC EGFR mutation to the IC50 value for cells with wildtype EGFR [12]	ratio of IC50 for cells with mutant EGFR to IC50 for cells with wildtype EGFR (Mut/WT) [13]	ratio of IC50 for cells with mutant EGFR to IC50 for cells with wildtype EGFR (Mut/WT) [14]	ratio of the IC50 value for cells with a PACC EGFR mutation to the IC50 value for cells with wildtype EGFR [15]	ratio of IC50 for cells with mutant EGFR to IC50 for cells with wildtype EGFR (Mut/WT) [16]	ratio of the IC50 value for cells with a PACC EGFR mutation to the IC50 value for cells with wildtype EGFR [17]	ratio of IC50 for cells with mutant EGFR to IC50 for cells with wildtype EGFR (Mut/WT) [18]	ratio of IC50 for cells with mutant EGFR to IC50 for cells with wildtype EGFR (Mut/WT) [19]	ratio of IC50 for cells with mutant EGFR to IC50 for cells with wildtype EGFR (Mut/WT) [20]	also measured
Cc1cc(C(=O)Nc2nc3cccc(Cl)c3n2[C@@H]2CCCCN(C(=O)/C=C/CN(C)C)C2)ccn1 [Nazartinib]	0.04632	0.01992	0.5146	0.1771	0.03861	0.009244	0.00115	4.292	2.649	0.03107	0.5273	0.08165	0.4008	5.557	0.09563	0.371	0.4195	0.317	0.005619	0.04749	ratio of the IC50 value for cells with a PACC EGFR mutation to the IC50 value for cells with wildtype EGFR [21]: 3.067; ratio of IC50 for cells with mutant EGFR to IC50 for cells with wildtype EGFR (Mut/WT) [22]: 0.02498; ratio of IC50 for cells with mutant EGFR to IC50 for cells with wildtype EGFR (Mut/WT) [23]: 0.05676; ratio of the IC50 value for cells with a PACC EGFR mutation to the IC50 value for cells with wildtype EGFR [24]: 0.2846; ratio of IC50 for cells with mutant EGFR to IC50 for cells with wildtype EGFR (Mut/WT) [25]: 0.529; ratio of the IC50 value for cells with a PACC EGFR mutation to the IC50 value for cells with wildtype EGFR [26]: 0.3486; ratio of IC50 for cells with mutant EGFR to IC50 for cells with wildtype EGFR (Mut/WT) [27]: 0.04541
C=CC(=O)Nc1cccc(Oc2nc(Nc3ccc(N4CCN(C)CC4)cc3)nc3ccsc23)c1 [Olmutinib]	0.0862	0.01609	0.01923	0.3121	0.05048	0.02052	0.0307	2.218	4.111	0.14	0.007216	0.214	0.5533	1.926	0.1109	0.4208	0.3569	0.3579	0.003331	0.008838	ratio of the IC50 value for cells with a PACC EGFR mutation to the IC50 value for cells with wildtype EGFR [21]: 2.14; ratio of IC50 for cells with mutant EGFR to IC50 for cells with wildtype EGFR (Mut/WT) [22]: 0.000771; ratio of IC50 for cells with mutant EGFR to IC50 for cells with wildtype EGFR (Mut/WT) [23]: 0.02753; ratio of the IC50 value for cells with a PACC EGFR mutation to the IC50 value for cells with wildtype EGFR [24]: 0.5131; ratio of IC50 for cells with mutant EGFR to IC50 for cells with wildtype EGFR (Mut/WT) [25]: 0.31; ratio of the IC50 value for cells with a PACC EGFR mutation to the IC50 value for cells with wildtype EGFR [26]: 0.1439; ratio of IC50 for cells with mutant EGFR to IC50 for cells with wildtype EGFR (Mut/WT) [27]: 0.03664
